Activity calls are given as the source filed them.
Key:
[1] = P. falciparum Dd2 growth inhibitors, dose response, SYBR Green, dry powder samples, set 9 (AID 1159568); type: functional, cell-based
[2] = biological target: Oxysterols receptor LXR-beta (Homo sapiens, UniProt P55055); experiment: LXR agonists, Gal4 luciferase reporter, dose response, counter-screen for ssDAF-12 agonist project, cell-based, luminescence, HEK293, S. stercoralis campaign (AID 720737); type: functional; conditions: read-out: IC50 (the source's name)
[3] = Luminescence-based cell-based high throughput dose response assay to identify activators of the DAF-12 from the parasite S. stercoralis (ssDAF-12).; type: functional
[4] = biological target: T1, Tyrosine-protein phosphatase non-receptor type 7 (Homo sapiens, UniProt P35236); experiment: inhibitors of human HePTP phosphatase, […], biochemical, absorbance, leukemia target (AID 521); type: functional
T1 sequence (P35236 whole entry): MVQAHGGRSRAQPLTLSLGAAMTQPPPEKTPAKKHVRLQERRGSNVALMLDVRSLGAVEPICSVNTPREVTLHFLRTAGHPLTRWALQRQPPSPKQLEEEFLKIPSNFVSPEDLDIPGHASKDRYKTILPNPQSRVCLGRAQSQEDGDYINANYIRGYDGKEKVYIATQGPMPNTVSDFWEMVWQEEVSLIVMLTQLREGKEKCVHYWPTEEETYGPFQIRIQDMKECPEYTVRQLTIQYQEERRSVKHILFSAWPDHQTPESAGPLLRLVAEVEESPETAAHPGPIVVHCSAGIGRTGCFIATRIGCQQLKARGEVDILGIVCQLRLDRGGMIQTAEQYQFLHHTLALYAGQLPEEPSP

[5] = P. falciparum 3D7-ScDHODH growth inhibitors, dose response, SYBR Green, dry powder samples (AID 1159570); type: functional, cell-based;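 note: parasite growth measured after 72 hours of compound exposure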
[6] = P. falciparum Dd2 growth inhibitors, dose response, SYBR Green, dry powder samples, set 4 (AID 1159572); type: functional, cell-based
[7] = P. falciparum Dd2 growth inhibitors, dose response, SYBR Green, dry powder samples (AID 1159566); type: functional, cell-based;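 note: potency for growth inhibition with lower SYBR green DNA signal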
[8] = P. falciparum Dd2 blood-stage growth inhibition, dose response, SYBR Green fluorescence, erythrocytes, dry powder, set 2 (AID 1159574); type: functional, cell-based
[9] = P. falciparum ATP4 D1247Y mutant growth inhibitors, dose response, NITD609-resistant line, SYBR Green, dry powder (AID 1159571); type: functional, cell-based;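 note: parasites synchronized at ring stage by sorbitol before testing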
[10] = HepG2 cell cytotoxicity, dose response, cytotoxicity control, plate reader, dry powder samples (AID 1159569); type: functional, cell-based;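 note: inhibitor potency with signal falling toward the positive control level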
[11] = P. falciparum Dd2 growth inhibitors, dose response, SYBR Green, cherry-picked samples (AID 1159567); type: functional, cell-based
[12] = HepG2 cell cytotoxicity, dose response, cytotoxicity control, cherry-picked samples (AID 1159577); type: functional, cell-based
Streptokinase A = biological target: T2, Streptokinase A (Streptococcus pyogenes serotype M1, UniProt P10520); experiment: S. pyogenes streptokinase expression inhibitors, potency, dose response, plasminogen activation absorbance, OD405 (AID 1914); type: functional, Streptococcus pyogenes M1 GAS;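 note: secreted streptokinase activity via plasminogen activation per viability signal from cell pellet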
T2 sequence (P10520 whole entry): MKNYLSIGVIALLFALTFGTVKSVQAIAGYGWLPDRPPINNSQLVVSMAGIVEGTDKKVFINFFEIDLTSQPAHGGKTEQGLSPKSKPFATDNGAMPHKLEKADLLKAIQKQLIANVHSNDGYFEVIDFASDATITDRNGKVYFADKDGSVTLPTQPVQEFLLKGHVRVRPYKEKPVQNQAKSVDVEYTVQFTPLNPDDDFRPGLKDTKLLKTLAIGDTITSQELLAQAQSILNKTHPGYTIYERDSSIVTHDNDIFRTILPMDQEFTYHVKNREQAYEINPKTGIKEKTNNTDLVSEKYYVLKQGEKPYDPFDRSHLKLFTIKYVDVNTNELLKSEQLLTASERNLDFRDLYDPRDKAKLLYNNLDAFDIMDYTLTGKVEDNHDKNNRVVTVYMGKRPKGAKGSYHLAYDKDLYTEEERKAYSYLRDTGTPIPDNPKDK

Streptococcus = experiment: Group A Streptococcus viability loss, dose response, counter-screen for streptokinase expression inhibitor project, luminescence, BacTiterGlo (AID 1915); type: functional, organism-based;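 note: potency for reduction of bacterial viability or growth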
[13] = HepG2 hepatoma cell cytotoxicity, dose response, cytotoxicity control, CellTiter-Glo luminescence, dry powder, set 3 (AID 720594); type: functional, cell-based
[14] = HEK293T cell cytotoxicity, dose response, cytotoxicity control, CellTiter-Glo luminescence, dry powder, set 2 (AID 720595); type: functional, cell-based; conditions: HEK293
[15] = system: Streptococcus sp. 'group A'; experiment: growth inhibition of control SK(-) GAS strain, dose response, counter-screen for streptokinase expression inhibitor project, luminescence, kanamycin, BacTiterGlo, confirmation (AID 1900); type: functional, organism-based
[16] = AlphaScreen signal interference by compounds, dose response, artefact control for ARNT/TACC3 disruptor project, biochemical, dual-tagged ARNT, dry powder (AID 720564)
Bcl-2-related protein A1 [17] = biological target: T3, Bcl-2-related protein A1 (Mus musculus, UniProt Q07440); experiment: Bfl-1 inhibitors blocking BH3 peptide binding, confirmation, biochemical, TR-FRET, mouse Bfl-1 (AID 621);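 note: TR-FRET binding of GST-Bfl-1 to FITC-labelled Bid peptide via terbium antibody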
T3 sequence (Q07440 whole entry): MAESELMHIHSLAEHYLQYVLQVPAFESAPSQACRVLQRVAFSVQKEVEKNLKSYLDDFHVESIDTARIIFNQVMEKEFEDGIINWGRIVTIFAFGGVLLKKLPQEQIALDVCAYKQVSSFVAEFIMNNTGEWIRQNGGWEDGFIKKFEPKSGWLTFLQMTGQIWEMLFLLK

fMet-Leu-Phe receptor = fMet-Leu-Phe receptor (Homo sapiens, UniProt P21462); experiment: FPR ligands, dose response (AID 519); type: functional
[18] = biological target: T4, Replicative DNA helicase DnaB (Mycobacterium tuberculosis, UniProt P9WMR3); experiment: DnaB intein splicing inhibitors, dose response, biochemical, cell-free fluorescence (AID 449749); type: functional
T4 sequence (P9WMR3 whole entry): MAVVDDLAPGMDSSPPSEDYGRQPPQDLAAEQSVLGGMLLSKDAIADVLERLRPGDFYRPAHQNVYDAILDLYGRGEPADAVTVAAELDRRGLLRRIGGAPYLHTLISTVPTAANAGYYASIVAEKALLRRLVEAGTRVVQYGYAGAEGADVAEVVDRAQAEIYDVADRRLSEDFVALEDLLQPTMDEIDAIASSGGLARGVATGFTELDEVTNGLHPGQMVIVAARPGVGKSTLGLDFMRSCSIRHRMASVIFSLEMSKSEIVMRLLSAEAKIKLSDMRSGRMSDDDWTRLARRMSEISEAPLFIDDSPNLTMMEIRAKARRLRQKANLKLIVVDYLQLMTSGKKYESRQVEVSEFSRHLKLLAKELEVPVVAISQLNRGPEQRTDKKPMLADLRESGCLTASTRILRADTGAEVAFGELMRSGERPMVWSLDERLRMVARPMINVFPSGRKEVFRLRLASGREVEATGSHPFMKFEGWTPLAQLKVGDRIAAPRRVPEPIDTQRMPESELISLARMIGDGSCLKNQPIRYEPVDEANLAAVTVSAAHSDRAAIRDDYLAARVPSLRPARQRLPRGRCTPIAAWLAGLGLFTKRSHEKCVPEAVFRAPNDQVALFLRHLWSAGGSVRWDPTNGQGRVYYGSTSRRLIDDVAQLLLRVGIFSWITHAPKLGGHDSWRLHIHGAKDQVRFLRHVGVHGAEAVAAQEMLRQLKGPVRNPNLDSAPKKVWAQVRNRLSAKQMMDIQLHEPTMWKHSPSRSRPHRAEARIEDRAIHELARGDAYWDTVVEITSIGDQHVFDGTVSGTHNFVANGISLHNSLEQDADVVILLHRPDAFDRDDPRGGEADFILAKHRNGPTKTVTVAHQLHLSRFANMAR

SUMO-activating enzyme [19] = biological target: T5, SUMO-activating enzyme (Homo sapiens, UniProt Q9UBT2); experiment: SUMOylation inhibitor hit validation, confirmation, SUMOylation inhibitor project, biochemical, AlphaScreen (AID 2018); type: functional
SUMO-activating enzyme [20] = biological target: T5, SUMO-activating enzyme; experiment: inhibitors of in vitro SUMOylation cascade, primary screen, biochemical, HTRF, uHTS (AID 2006); type: protein-complex assay
Bcl-2-related protein A1 [21] = biological target: T3, Bcl-2-related protein A1; experiment: Bfl-1 inhibitors, primary screen, biochemical, fluorescence polarization, FITC-Bid, mouse (AID 432)
Protein RecA = biological target: T6, Protein RecA (Mycobacterium tuberculosis, UniProt P9WHJ3); experiment: Fluorescence Cell-Free Homogeneous Dose Retest to Identify Inhibitors of RecA-Intein Splicing Activity. [Related pubchem assays (depositor defined):AID2097, AID2223, AID489010, AID492950]; type: functional
T6 sequence (P9WHJ3 whole entry): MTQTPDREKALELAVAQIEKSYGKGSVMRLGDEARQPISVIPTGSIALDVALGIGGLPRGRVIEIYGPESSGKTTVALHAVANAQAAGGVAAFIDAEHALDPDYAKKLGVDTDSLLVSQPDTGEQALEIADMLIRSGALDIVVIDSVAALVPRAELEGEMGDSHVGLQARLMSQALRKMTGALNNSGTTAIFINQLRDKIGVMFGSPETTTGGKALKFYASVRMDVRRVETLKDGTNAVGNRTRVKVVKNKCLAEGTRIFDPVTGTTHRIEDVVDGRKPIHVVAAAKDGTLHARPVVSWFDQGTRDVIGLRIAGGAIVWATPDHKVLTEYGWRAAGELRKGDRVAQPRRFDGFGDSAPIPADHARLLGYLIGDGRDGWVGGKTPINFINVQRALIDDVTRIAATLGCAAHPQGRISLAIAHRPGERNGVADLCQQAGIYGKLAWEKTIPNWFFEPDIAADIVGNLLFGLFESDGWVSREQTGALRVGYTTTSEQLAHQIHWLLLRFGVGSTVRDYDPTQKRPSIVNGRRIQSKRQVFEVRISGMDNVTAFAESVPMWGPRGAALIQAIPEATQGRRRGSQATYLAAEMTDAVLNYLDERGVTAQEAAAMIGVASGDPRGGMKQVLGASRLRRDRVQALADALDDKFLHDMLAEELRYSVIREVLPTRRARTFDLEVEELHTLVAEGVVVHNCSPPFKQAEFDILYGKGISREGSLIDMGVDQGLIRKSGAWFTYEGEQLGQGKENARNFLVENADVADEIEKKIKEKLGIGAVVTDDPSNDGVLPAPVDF

T5 sequence (Q9UBE0 whole entry): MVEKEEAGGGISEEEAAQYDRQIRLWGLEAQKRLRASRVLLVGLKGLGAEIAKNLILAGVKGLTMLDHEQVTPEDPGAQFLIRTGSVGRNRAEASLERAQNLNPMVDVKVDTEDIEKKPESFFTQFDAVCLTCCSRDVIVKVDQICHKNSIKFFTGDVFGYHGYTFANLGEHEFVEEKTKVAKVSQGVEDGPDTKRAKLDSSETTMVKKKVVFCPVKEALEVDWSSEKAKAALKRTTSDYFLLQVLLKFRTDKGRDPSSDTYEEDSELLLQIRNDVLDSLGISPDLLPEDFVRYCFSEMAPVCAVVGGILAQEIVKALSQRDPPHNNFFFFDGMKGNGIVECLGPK
T5 sequence (Q9UBT2 whole entry): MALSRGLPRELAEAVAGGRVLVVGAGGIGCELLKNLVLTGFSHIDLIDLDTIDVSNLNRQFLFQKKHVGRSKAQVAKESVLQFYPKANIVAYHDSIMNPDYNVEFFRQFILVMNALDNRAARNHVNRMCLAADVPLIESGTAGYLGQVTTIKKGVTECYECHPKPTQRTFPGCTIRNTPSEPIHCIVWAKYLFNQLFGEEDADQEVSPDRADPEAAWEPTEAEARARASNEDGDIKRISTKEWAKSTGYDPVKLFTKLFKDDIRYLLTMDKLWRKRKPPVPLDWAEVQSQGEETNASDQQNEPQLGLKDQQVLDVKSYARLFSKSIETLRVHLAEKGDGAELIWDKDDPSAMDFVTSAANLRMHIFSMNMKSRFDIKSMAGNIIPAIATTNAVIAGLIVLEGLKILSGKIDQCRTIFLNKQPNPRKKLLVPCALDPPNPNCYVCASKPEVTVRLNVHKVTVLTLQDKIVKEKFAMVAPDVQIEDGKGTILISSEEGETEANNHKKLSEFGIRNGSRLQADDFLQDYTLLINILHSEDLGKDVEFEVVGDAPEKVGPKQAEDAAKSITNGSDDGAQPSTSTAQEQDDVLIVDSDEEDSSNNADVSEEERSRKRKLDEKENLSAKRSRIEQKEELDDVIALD
Chain of Oxysterols receptor LXR-beta (P55055 whole entry, the tested form may be a part): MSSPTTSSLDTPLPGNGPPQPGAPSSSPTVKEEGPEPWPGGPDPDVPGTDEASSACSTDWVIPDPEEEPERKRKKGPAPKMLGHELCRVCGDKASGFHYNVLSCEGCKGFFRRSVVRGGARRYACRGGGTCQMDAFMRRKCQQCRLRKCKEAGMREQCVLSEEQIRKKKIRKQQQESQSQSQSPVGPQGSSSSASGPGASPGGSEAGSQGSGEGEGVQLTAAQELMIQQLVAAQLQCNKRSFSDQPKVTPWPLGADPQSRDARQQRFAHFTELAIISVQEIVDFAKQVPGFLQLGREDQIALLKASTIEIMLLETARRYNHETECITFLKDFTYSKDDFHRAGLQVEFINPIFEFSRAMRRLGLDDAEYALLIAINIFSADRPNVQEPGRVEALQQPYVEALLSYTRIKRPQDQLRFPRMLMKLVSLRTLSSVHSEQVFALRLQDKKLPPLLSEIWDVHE
Chain of fMet-Leu-Phe receptor (P21462 whole entry): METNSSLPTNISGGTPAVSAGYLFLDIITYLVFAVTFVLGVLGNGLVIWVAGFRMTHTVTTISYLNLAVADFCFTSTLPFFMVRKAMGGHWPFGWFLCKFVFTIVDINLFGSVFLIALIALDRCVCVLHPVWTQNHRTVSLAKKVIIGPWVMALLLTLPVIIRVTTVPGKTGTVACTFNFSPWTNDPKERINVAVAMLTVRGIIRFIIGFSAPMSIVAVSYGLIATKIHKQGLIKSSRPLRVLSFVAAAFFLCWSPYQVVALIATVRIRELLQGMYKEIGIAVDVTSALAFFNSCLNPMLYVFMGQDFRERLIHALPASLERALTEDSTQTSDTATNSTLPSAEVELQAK

**Q.** For `C[C@@H]1CCCCO[C@H](CN(C)S(=O)(=O)c2ccccc2)[C@@H](C)CN([C@H](C)CO)C(=O)c2cc(NC(=O)Nc3ccc4c(c3)OCO4)ccc2O1`, which AC50 [1] is on record?
**A.** 8.49 µM (active)

**Q.** Which results are given for `COCCNC(=O)Cn1nc(-c2ccc(Cl)cc2)c2ccccc2c1=O`?
**A.** EC50 [2]: > 67.5 µM (inactive); IC50 [3]: > 67.5 µM (inactive)

**Q.** With `CCC(=O)Nc1c(C#N)c2nc3ccccc3nc2n1-c1ccc(C)cc1` as the compound, how does the IC50 [4] read?
**A.** > 100 µM (not active)

**Q.** With `COc1ccc2c3c([nH]c2c1)[C@H](CO)N(C(C)=O)CC31CCN(C(=O)Nc2ccccc2F)CC1` as the compound, how does the AC50 [5] read?
**A.** 0.0263 µM (active)

**Q.** What about the AC50 [6] of the same compound?
**A.** 0.101 µM (active)

**Q.** And the AC50 [7]?
**A.** 0.0279 µM (active)

**Q.** And the AC50 [8]?
**A.** 0.0828 µM (active)

**Q.** And the AC50 [9]?
**A.** 0.0166 µM (active)

**Q.** And the AC50 [10]?
**A.** 46.9 µM (active)

**Q.** And the AC50 [11]?
**A.** < 0.3 µM (active)

**Q.** And the AC50 [12]?
**A.** 33.4 µM (active)

**Q.** Which EC50 (Streptokinase A) does the source give for `CC1CCCN(S(=O)(=O)c2ccc(C(=O)Nc3nnc(C4=COCCO4)o3)cc2)C1` (stereo not given) here?
**A.** > 150 µM (not active)

**Q.** And the EC50 (Streptococcus)?
**A.** 98.4 µM (active)

**Q.** What about the AC50 [13] of the same compound?
**A.** > 52 µM (inactive)

**Q.** What about the AC50 [14] of the same compound?
**A.** 27.6 µM (active)

**Q.** What about the EC50 [15] of the same compound?
**A.** 4.77 µM (active)

**Q.** And the AC50 [16]?
**A.** 101 µM (active)

**Q.** What does the source list for `Cc1ccccc1Nc1cc2ccccc2c(O)n1`?
**A.** IC50 (Bcl-2-related protein A1 [17]): > 100 µM (not active); Ki (fMet-Leu-Phe receptor): > 66.7 µM (inactive); AC50 [18]: 41.9 µM (inconclusive); IC50 (SUMO-activating enzyme [19]): 1.84 µM (active); IC50 (SUMO-activating enzyme [20]): 4.3 µM (active); IC50 (Bcl-2-related protein A1 [21]): 22.4 µM (active); EC50 (Protein RecA): 0.616 µM (active)
